PMC6007841 (Journal of medicinal chemistry, 2018)
Values joined by “and” are separate entries in the source; they are usually repeats but may differ in a detail not shown here. Equal values may be shown once. Bridge positions count the residues as written; N and C are the ends. Ends that are not written are not given here. Peptide text beside a SMILES is read from it.

Key:
[1] = target: T1, hMC1R (Homo sapiens, UniProt Q01726); conditions: human MC1R; HEK293 cells; cited from earlier work
[2] = target: hMC5R (Homo sapiens, UniProt P33032); assay: cAMP AlphaScreen agonist assay, hMC5R; conditions: for Agonist efficacy (in words): hMC5R, up to 100 μM, HEK293 cells, cAMP
Sequence of hMC5R (P33032 whole entry): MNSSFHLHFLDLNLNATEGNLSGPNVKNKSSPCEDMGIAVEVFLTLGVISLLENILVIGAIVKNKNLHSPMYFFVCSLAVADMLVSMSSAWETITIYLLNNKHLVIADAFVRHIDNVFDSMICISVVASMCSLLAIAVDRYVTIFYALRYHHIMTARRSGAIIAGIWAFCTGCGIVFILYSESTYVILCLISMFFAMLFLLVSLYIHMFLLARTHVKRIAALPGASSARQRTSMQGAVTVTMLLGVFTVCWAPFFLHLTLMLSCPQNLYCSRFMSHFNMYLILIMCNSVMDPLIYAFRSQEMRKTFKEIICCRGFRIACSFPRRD

[3] = target: hMC3R (Homo sapiens, UniProt P41968); assay: cAMP AlphaScreen agonist assay, hMC3R; conditions: for Agonist efficacy (in words): hMC3R, up to 100 μM, HEK293 cells, cAMP
Sequence of hMC3R (P41968 whole entry): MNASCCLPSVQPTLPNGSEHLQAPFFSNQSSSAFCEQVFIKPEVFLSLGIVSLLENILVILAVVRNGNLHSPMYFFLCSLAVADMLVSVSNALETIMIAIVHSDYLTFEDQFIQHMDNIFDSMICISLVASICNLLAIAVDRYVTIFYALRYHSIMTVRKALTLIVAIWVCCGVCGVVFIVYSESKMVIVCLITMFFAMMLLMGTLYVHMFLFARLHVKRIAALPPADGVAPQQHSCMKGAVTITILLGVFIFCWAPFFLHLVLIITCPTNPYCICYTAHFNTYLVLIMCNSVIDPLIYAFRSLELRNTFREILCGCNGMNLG

[4] = target: T2, hMC4R (Homo sapiens, UniProt P32245); assay: Competitive displacement binding, [125I]-NDP-MSH, hMC4R; conditions: HEK293 cells
T2 sequence (P32245 whole entry): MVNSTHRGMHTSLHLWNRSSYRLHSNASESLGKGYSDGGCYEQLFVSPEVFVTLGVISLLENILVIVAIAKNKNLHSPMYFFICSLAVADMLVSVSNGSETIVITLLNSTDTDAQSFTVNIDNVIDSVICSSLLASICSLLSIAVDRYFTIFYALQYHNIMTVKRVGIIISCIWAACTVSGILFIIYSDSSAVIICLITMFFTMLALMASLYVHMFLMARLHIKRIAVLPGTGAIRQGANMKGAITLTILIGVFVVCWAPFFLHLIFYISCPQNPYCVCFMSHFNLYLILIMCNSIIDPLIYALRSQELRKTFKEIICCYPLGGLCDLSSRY

[5] = target: T2, hMC4R; assay: cAMP AlphaScreen agonist assay, hMC4R; conditions: for Agonist efficacy (in words): hMC4R, up to 100 μM, HEK293 cells, cAMP
[6] = target: T1, hMC1R; assay: cAMP AlphaScreen agonist assay, hMC1R; conditions: for Agonist efficacy (in words): up to 100 μM, HEK293 cells, cAMP
[7] = test system: melanocortin receptors; assay: cAMP agonist pharmacology at the melanocortin receptors; assay type: cell-based; conditions: cAMP based
[8] = target: mMC1R (Mus musculus, UniProt Q01727); assay: cAMP AlphaScreen agonist assay, mMC1R; conditions: for Agonist efficacy (in words): mMC1R, up to 100 μM, HEK293 cells, cAMP
Sequence of mMC1R (Q01727 whole entry): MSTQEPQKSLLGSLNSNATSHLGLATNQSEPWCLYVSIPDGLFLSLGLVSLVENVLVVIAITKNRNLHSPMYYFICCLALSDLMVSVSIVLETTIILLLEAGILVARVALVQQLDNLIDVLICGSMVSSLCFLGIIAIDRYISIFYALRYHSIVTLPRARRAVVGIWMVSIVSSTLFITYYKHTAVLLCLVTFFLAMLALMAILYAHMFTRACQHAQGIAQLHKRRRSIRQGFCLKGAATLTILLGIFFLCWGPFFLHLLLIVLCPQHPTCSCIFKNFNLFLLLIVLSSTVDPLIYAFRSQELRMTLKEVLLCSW

[9] = test system: mice; assay: Fasting feeding paradigm after central administration in cannulated male mice; assay type: in vivo, mouse; conditions: 100 μg at start of 22 h fast, vs saline
[10] = target: mMC3R (Mus musculus, UniProt P33033); assay: cAMP AlphaScreen agonist assay, mMC3R; conditions: HEK293 cells; for Agonist efficacy (in words): up to 100 μM
Sequence of mMC3R (P33033 whole entry): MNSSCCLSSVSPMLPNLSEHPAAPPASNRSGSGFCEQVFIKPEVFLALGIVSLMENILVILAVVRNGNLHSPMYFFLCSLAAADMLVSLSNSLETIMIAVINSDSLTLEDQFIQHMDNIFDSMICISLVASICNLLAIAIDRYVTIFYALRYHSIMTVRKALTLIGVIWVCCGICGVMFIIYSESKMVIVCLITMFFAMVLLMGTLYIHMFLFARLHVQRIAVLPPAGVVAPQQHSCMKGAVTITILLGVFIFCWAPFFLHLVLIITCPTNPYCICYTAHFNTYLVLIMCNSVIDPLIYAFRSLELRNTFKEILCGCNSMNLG

[11] = target: T1, hMC1R; assay: Competitive displacement binding, [125I]-NDP-MSH, hMC1R; conditions: HEK293 cells
[12] = target: mMC5R (Mus musculus, UniProt P41149); assay: cAMP AlphaScreen agonist assay, mMC5R; conditions: for Agonist efficacy (in words): mMC5R, up to 100 μM, HEK293 cells, cAMP
Sequence of mMC5R (P41149 whole entry): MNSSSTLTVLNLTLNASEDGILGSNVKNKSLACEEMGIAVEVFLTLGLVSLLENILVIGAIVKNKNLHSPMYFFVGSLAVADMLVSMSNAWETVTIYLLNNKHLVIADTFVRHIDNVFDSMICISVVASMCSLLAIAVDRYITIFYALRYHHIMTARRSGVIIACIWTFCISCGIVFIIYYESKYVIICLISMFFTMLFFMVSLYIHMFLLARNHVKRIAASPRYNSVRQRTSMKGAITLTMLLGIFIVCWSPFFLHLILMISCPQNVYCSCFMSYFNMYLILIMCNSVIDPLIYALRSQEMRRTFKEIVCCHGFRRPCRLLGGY

[13] = target: T3, mMC4R (Mus musculus, UniProt P56450); assay: Competitive displacement binding, [125I]-NDP-MSH, mMC4R; conditions: HEK293 cells
T3 sequence (P56450 whole entry): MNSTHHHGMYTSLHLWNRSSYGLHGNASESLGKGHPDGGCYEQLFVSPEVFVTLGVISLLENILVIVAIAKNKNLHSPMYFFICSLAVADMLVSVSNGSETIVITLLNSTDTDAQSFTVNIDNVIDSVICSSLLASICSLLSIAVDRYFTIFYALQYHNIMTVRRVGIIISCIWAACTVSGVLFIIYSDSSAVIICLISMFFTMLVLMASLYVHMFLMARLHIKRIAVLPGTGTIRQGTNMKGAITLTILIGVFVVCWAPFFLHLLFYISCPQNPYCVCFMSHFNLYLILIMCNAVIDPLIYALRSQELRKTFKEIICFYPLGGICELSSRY

[14] = target: T3, mMC4R; assay: cAMP AlphaScreen agonist assay, mMC4R
[15] = HEK293, read-out: Maximal stimulatory response at 100 μM

T1 sequence (Q01726 whole entry): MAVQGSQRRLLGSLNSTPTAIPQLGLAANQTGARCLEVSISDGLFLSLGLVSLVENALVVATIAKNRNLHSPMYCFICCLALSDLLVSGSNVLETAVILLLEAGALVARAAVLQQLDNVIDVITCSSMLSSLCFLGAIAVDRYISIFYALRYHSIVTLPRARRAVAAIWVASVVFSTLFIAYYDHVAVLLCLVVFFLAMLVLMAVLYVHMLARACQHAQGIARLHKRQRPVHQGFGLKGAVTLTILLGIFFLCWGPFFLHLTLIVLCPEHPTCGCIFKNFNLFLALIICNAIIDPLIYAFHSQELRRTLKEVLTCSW

CC[C@H](C)[C@@H]1NC(=O)[C@H](CCCCN)NC(=O)[C@H]([C@@H](C)O)NC(=O)[C@H](Cc2ccccc2)NC(=O)[C@H]([C@@H](C)CC)NC(=O)[C@@H]2CCCN2C(=O)[C@@H]2CSSC[C@@H](C(=O)N[C@@H](CCCCN)C(=O)O)NC(=O)[C@@H]3CSSC[C@H](NC(=O)[C@H](CC(N)=O)NC(=O)[C@H](Cc4ccc(O)cc4)NC(=O)[C@H](Cc4c[nH]cn4)NC(=O)[C@@H](N)CC(=O)O)C(=O)N[C@@H](C(C)C)C(=O)N[C@@H](CO)C(=O)N[C@@H](CO)C(=O)NCC(=O)NCC(=O)N[C@@H](CCC(N)=O)C(=O)N[C@@H](CSSC[C@H](NC(=O)[C@H]([C@@H](C)O)NC(=O)CNC(=O)[C@H](CCC(N)=O)NC1=O)C(=O)N[C@@H](Cc1ccc(O)cc1)C(=O)N[C@@H](CCCNC(=N)N)C(=O)NCC(=O)N[C@@H](CCCCN)C(=O)N[C@@H](C)C(=O)N[C@@H](CCCCN)C(=O)N3)C(=O)N[C@@H](CC(C)C)C(=O)N[C@@H](Cc1ccc(O)cc1)C(=O)N[C@@H](CO)C(=O)N[C@@H](C)C(=O)N2 [hBD1] (H-DHYNCVSSGGQCLYSACPIFTKIQGTCYRGKAKCCK-OH; disulfide 5-34, 12-27, 17-35; N-terminus and C-terminus assumed)
Binding affinity [1]: 30 nM and 30.0 nM
Agonist efficacy (in words) [2]: no activity
Agonist efficacy (in words) [3]: no activity
Displacement of radiolabeled NDP-MSH (in words) [4]: not sufficient displacement of the radiolabel to generate an IC50 values
Agonist efficacy (in words) [5]: Full agonist efficacy
Agonist efficacy (in words) ([6]; hMC1R): Full agonist efficacy

CC[C@H](C)[C@H](NC(=O)[C@H](CCCCN)NC(=O)[C@@H](NC(=O)[C@H](Cc1ccccc1)NC(=O)[C@@H](NC(=O)[C@@H]1CCCN1C(=O)[C@H](CS)NC(=O)[C@H](C)NC(=O)[C@H](CO)NC(=O)[C@H](Cc1ccc(O)cc1)NC(=O)[C@H](CC(C)C)NC(=O)[C@H](CS)NC(=O)[C@H](CCC(N)=O)NC(=O)CNC(=O)CNC(=O)[C@H](CO)NC(=O)[C@H](CO)NC(=O)[C@@H](NC(=O)[C@H](CS)NC(=O)[C@H](CC(N)=O)NC(=O)[C@H](Cc1ccc(O)cc1)NC(=O)[C@H](Cc1c[nH]cn1)NC(=O)[C@@H](N)CC(=O)O)C(C)C)[C@@H](C)CC)[C@@H](C)O)C(=O)N[C@@H](CCC(N)=O)C(=O)NCC(=O)N[C@H](C(=O)N[C@@H](CS)C(=O)N[C@@H](Cc1ccc(O)cc1)C(=O)N[C@@H](CCCNC(=N)N)C(=O)NCC(=O)N[C@@H](CCCCN)C(=O)N[C@@H](C)C(=O)N[C@@H](CCCCN)C(=O)N[C@@H](CS)C(=O)N[C@@H](CS)C(=O)N[C@@H](CCCCN)C(=O)O)[C@@H](C)O [hBD1red] (H-DHYNCVSSGGQCLYSACPIFTKIQGTCYRGKAKCCK-OH; N-terminus and C-terminus assumed)
Agonist efficacy (in words) [5]: partial agonist stimulation
Agonist activity at the melanocortin receptors (in words) [7]: no activity at the remaining receptor subtypes
Agonist efficacy (in words) ([6]; hMC1R): partial agonist stimulation

CC(C)C[C@@H]1NC(=O)[C@@H]2CSSC[C@@H]3NC(=O)[C@H]([C@@H](C)O)NC(=O)CNC(=O)[C@H](CCC(N)=O)NC(=O)[C@H](CC(C)C)NC(=O)[C@H](CCCCN)NC(=O)[C@H]([C@@H](C)O)NC(=O)[C@H](CC(N)=O)NC(=O)[C@H](CO)NC(=O)[C@@H]4CCCN4C(=O)[C@H](CSSC[C@@H](C(=O)N[C@@H](CCCCN)C(=O)N[C@@H](CO)C(=O)O)NC(=O)[C@H](CSSC[C@H](NC(=O)[C@H](CCCCN)NC(=O)[C@H](Cc4ccc(O)cc4)NC(=O)[C@H](CCC(N)=O)NC(=O)[C@@H](N)CC(=O)O)C(=O)N[C@@H](CC(C)C)C(=O)N[C@@H](CCC(N)=O)C(=O)N[C@@H](Cc4c[nH]cn4)C(=O)NCC(=O)NCC(=O)N[C@@H](Cc4ccccc4)C(=O)N2)NC(=O)[C@H](CC(N)=O)NC(=O)[C@@H]2CCCN2C(=O)[C@H](CCCCN)NC(=O)[C@H](CC(=O)O)NC(=O)[C@@H]2CCCN2C(=O)[C@H](CCCCN)NC3=O)NC(=O)[C@H](CO)NC(=O)[C@H](CO)NC(=O)[C@H](CCCNC(=N)N)NC1=O [mBD1] (H-DQYKCLQHGGFCLRSSCPSNTKLQGTCKPDKPNCCKS-OH; disulfide 5-34, 12-27, 17-35; N-terminus and C-terminus assumed)
Agonist efficacy (in words) [8]: full agonist efficacy with micromolar potency
Agonist efficacy (in words) [2]: no activity
Agonist efficacy (in words) [3]: full agonist efficacy with micromolar potency
Body weight, specific time points [9]: no significance was observed at specific time points
Cumulative food intake, follow-up analysis at specific time points [9]: follow-up analysis did not result in significance at a specific time point
Displacement of radiolabeled NDP-MSH (in words) [4]: unable to displace
Agonist efficacy (in words) [10]: full agonist efficacy with micromolar potency
Displacement of radiolabeled NDP-MSH (in words) [11]: unable to displace
Agonist efficacy (in words) [5]: full agonist efficacy with micromolar potency
Agonist efficacy (in words) [12]: full agonist efficacy with micromolar potency
Displacement of radiolabeled NDP-MSH (in words) [13]: unable to displace
Agonist efficacy (in words) ([6]; hMC1R): full agonist efficacy with micromolar potency

CC(C)C[C@H](NC(=O)[C@H](CS)NC(=O)[C@H](Cc1ccccc1)NC(=O)CNC(=O)CNC(=O)[C@H](Cc1c[nH]cn1)NC(=O)[C@H](CCC(N)=O)NC(=O)[C@H](CC(C)C)NC(=O)[C@H](CS)NC(=O)[C@H](CCCCN)NC(=O)[C@H](Cc1ccc(O)cc1)NC(=O)[C@H](CCC(N)=O)NC(=O)[C@@H](N)CC(=O)O)C(=O)N[C@@H](CCCNC(=N)N)C(=O)N[C@@H](CO)C(=O)N[C@@H](CO)C(=O)N[C@@H](CS)C(=O)N1CCC[C@H]1C(=O)N[C@@H](CO)C(=O)N[C@@H](CC(N)=O)C(=O)N[C@H](C(=O)N[C@@H](CCCCN)C(=O)N[C@@H](CC(C)C)C(=O)N[C@@H](CCC(N)=O)C(=O)NCC(=O)N[C@H](C(=O)N[C@@H](CS)C(=O)N[C@@H](CCCCN)C(=O)N1CCC[C@H]1C(=O)N[C@@H](CC(=O)O)C(=O)N[C@@H](CCCCN)C(=O)N1CCC[C@H]1C(=O)N[C@@H](CC(N)=O)C(=O)N[C@@H](CS)C(=O)N[C@@H](CS)C(=O)N[C@@H](CCCCN)C(=O)N[C@@H](CO)C(=O)O)[C@@H](C)O)[C@@H](C)O [mBD1red] (H-DQYKCLQHGGFCLRSSCPSNTKLQGTCKPDKPNCCKS-OH; N-terminus and C-terminus assumed)
Agonist efficacy (in words) ([14]; mMC4R, up to 100 μM, HEK293 cells, cAMP): did not possess agonist activity
Agonist efficacy (in words) [2]: unable to stimulate
Agonist efficacy (in words) [3]: unable to stimulate
Agonist efficacy (in words) [10]: did not possess agonist activity
Lower agonist potency compared to the cyclic mBD1 ([6]; hMC1R, EC50 ratio mBD1red vs mBD1): 3 fold
Agonist efficacy (in words) ([6]; hMC1R): full agonist

FLPKTLRKFFCRIRGGRCAVLNCLGKEEQIGRCSNSGRKCCRKKK (cysteines drawn unpaired) [mBD3*red]
Emax at 100 µM [8, 15]: 40%
Emax at 100 µM [14, 15]: 40%
Emax at 100 µM [2, 15]: 40%
EC50 [3]: > 100 µM
Maximal stimulatory response at 100 μM ([10]; 100 μM, relative to maximal NDP-MSH signal): 35% @ 100 μM
Emax at 100 µM [5, 15]: 50%
Emax at 100 µM [12, 15]: 35%
Emax at 100 µM [6, 15]: 45%

FLPKTLRKFFCRIRGGRCAVLNCLGKEEQIGRCSNSGRKCCRKKK (disulfide 11-40, 18-33, 23-41) [mBD3*]
EC50 [3]: > 100 µM

GIINTLQKYYCRVRGGRCAVLSCLPKEEQIGKCSTRGRKCCRRKK (cysteines drawn unpaired) [hBD3red]
EC50 [8]: > 100 µM
Agonist efficacy (in words) [8]: unable to stimulate
EC50 [3]: > 100 µM
Agonist efficacy (in words) [3]: unable to stimulate
EC50 [12]: > 100 µM
Agonist efficacy (in words) [12]: unable to stimulate
